# Columns and labels:
# [1] = Thermodynamic solubility profiling; format: physicochemical; conditions: PBS buffer pH 7.4, 24 h at rt
# Method: Thermodynamic solubility profiling. A 50 mM DMSO stock solution of test compound was prepared, and from this, a working solution of 1 mM was prepared by dilution with DMSO. The UV absorbance of working solution was scanned from 220 nm to 1000 nm to identify the wavelength maxima of test compound. The 1 mM working solution was then serially diluted in DMSO to different concentrations to determine linearity/calibration curve. […] The resulting solution was then kept on a RotoSpin shaker at 50 rpm for 24 h at rt before the solution was filtered using 0.45 micron PVDF injector filters in order to remove the insoluble fraction of the compound. Subsequently, 150 uL of the filtrate is taken for quantification using a UV spectrophotometer, acquiring the optical density of standard solutions and test compound at the same wavelength maxima. From the optical density of test compound the thermodynamic solubility is calculated using the linearity/calibration curve and expressed as micromolar (μM). Solubility profiles of certain compounds of the invention are detailed in Table 7.
# [2] = tested on: migraine; conditions: humans, at 24 h after intravenous infusion of a 2.5 mg dose; cited from earlier work
# [3] = target: CGRP receptor (Homo sapiens (Human), UniProt O60894+Q16602); conditions: literature; cited from earlier work
# Chain of CGRP receptor (Q16602 23-461): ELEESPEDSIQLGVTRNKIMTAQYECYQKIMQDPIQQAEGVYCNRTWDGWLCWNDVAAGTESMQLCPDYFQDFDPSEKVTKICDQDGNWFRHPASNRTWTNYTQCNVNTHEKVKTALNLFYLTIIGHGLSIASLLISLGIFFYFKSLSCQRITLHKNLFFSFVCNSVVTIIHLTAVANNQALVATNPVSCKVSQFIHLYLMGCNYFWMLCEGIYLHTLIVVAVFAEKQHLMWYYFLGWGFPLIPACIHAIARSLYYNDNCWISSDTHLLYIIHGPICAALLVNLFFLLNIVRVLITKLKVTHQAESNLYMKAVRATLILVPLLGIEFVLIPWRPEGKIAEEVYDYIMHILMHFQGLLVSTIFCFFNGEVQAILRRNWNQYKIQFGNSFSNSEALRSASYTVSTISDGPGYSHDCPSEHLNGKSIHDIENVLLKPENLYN
# Chain of CGRP receptor (O60894 27-148): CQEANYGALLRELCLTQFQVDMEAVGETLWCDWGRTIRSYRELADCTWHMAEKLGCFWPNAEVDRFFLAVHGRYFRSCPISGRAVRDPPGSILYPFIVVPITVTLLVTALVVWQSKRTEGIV
Thermodynamic solubility (μM) pH 7.4 [1] [μM],Structure (SMILES),headache-free rate [2] [%],kinetics at the CGRP receptor [3]
1205,"Cc1cc(C[C@@H](NC(=O)N2CCC(N3Cc4ccccc4NC3=O)CC2)C(=O)N[C@@H](CC2CCNCC2)C(=O)N2CCN(c3ccncc3)CC2)cc2cn[nH]c12 [Example 10, N-[(2R)-3-(7-methyl-1H-indazol-5-yl)-1-oxo-1-({(2S) (2S)-1-oxo-3-(piperidin-4-yl)-1-[4-(pyridin-4-yl)piperazin-1-yl]propan-2-yl}amino)propan-2-yl]-4-(2-oxo-1,4-dihydroquinazolin-3(2H)-yl)piperidine-1-carboxamide]",,
,NCCCC[C@H](NC(=O)[C@@H](Cc1cc(Br)c(O)c(Br)c1)NC(=O)N1CCC(N2Cc3ccccc3NC2=O)CC1)C(=O)N1CCN(c2ccncc2)CC1 [olcegepant],47,slow kinetics
,O=C(CN1C(=O)C2(CCCC2)NC[C@H]1c1cc(F)cc(F)c1)Nc1ccc2c(c1)C[C@@]1(C2)C(=O)Nc2ncccc21 [MK-3207],,relatively slow dissociation
